Reference: ChEMBL document CHEMBL4184281, “Pharmacology and in vivo efficacy of pyridine-pyrimidine amides that inhibit microtubule polymerization” (Bioorg Med Chem Lett, 2018)
Values belong to the compound of their own block, whether it stands above or below them. Activity calls are given as the source filed them. The rule behind the calls is not given here.

What was measured:
[1] = Toxicity in mouse; assay type: organism-based; conditions: in vivo
SNU-16 [2] = experiment: Antitumor activity against human SNU16 cells xenografted in nude BALB/c mouse assessed as tumor growth inhibition relative to control; assay type: functional
[3] = Tmax in CD-1 mouse administered as single po dose by mass spectrometry; assay type: ADME, organism-based; conditions: in vivo
[4] = Toxicity in mouse administered as single po dose; assay type: organism-based; conditions: in vivo
A2780 [5] = experiment: Antitumor activity against human A2780 cells xenografted in nude BALB/c mouse assessed as tumor growth inhibition at 20 mg/kg, po qd measured up to 12 days post dose; assay type: functional, organism-based
Mus musculus [6] = experiment: Toxicity in nude BALB/c mouse xenografted with human A2780 cells assessed as change in body weight at 20 mg/kg, po qd measured up to 12 days post dose; assay type: organism-based; conditions: in vivo, 288 h
A2780 [7] = experiment: Antitumor activity against human A2780 cells xenografted in nude BALB/c mouse assessed as tumor growth inhibition at 15 mg/kg, po administered every other day measured up to 12 days post dose; assay type: functional, organism-based
Mus musculus [8] = experiment: Toxicity in nude BALB/c mouse xenografted with human A2780 cells assessed as change in body weight at 15 mg/kg, po administered every other day measured up to 12 days post dose; assay type: organism-based; conditions: in vivo, 288 h
[9] = Unbound fraction in plasma (unknown origin); assay type: ADME, cell-free
[10] = Protein binding in plasma (unknown origin); assay type: ADME, cell-free; conditions: read-out: PPB (converted)
[11] = Drug recovery in plasma (unknown origin); assay type: ADME, cell-free
[12] = Stability in human plasma assessed as parent compound remaining after 75 mins relative to initial time; assay type: ADME, cell-free; conditions: read-out: Stability
[13] = Stability in human plasma assessed as parent compound remaining after 2 hrs relative to initial time; assay type: ADME, cell-free; conditions: read-out: Stability
[14] = Stability in human plasma assessed as parent compound remaining after 4 hrs relative to initial time; assay type: ADME, cell-free; conditions: read-out: Stability
[15] = Stability in human plasma assessed as parent compound remaining after 8 hrs relative to initial time; assay type: ADME, cell-free; conditions: read-out: Stability
[16] = Stability in human plasma assessed as parent compound remaining after 24 hrs relative to initial time; assay type: ADME, cell-free; conditions: read-out: Stability
[17] = Half life in mouse liver microsomes; assay type: ADME, microsome
[18] = Half life in rat liver microsomes; assay type: ADME, microsome
[19] = Half life in dog liver microsomes; assay type: ADME, Canis lupus familiaris, microsome
[20] = Half life in human liver microsomes; assay type: ADME, microsome
Cytochrome P450 1A2 = biological target: T1, Cytochrome P450 1A2 (Homo sapiens, UniProt P05177); experiment: Inhibition of CYP1A2 (unknown origin); assay type: ADME
T1 sequence (P05177 whole entry): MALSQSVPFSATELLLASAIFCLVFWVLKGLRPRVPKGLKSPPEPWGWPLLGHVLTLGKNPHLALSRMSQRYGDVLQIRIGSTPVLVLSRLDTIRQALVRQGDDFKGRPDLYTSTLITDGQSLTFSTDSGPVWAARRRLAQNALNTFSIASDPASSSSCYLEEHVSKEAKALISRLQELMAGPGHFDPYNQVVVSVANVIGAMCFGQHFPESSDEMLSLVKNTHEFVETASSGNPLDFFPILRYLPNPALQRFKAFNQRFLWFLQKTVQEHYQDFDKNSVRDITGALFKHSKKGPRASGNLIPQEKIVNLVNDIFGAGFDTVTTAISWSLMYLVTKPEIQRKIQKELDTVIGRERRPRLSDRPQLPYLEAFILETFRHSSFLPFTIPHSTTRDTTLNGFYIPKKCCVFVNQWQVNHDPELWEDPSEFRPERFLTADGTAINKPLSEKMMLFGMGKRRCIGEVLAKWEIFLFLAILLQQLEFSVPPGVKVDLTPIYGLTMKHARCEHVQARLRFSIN

Cytochrome P450 2C9 = Cytochrome P450 2C9 (Homo sapiens, UniProt P11712); experiment: Inhibition of CYP2C9 (unknown origin); assay type: ADME
Cytochrome P450 2C19 = Cytochrome P450 2C19 (Homo sapiens, UniProt P33261); experiment: Inhibition of CYP2C19 (unknown origin); assay type: ADME
Cytochrome P450 2D6 = Cytochrome P450 2D6 (Homo sapiens, UniProt P10635); experiment: Inhibition of CYP2D6 (unknown origin); assay type: ADME
Cytochrome P450 3A4 = Cytochrome P450 3A4 (Homo sapiens, UniProt P08684); experiment: Inhibition of CYP3A4 (unknown origin); assay type: ADME
[21] = Efflux ratio of apparent intrinsic permeability in human Caco2 cells after 120 mins by mass spectrometry; assay type: ADME, cell-based; conditions: Caco-2
SNU-16 [22] = experiment: Antitumor activity against human SNU16 cells harboring luciferase orthotopically implanted in gastric mucosa of Balb/c nude mouse assessed as tumor growth inhibition at 20 mg/kg, po qd administered for 5 days per week for 3 weeks starting from 1 week post tumor implantation by luminescence imaging method; assay type: functional, organism-based
MFE-296 [23] = experiment: Antitumor activity against human MFE296 cells xenografted in nude BALB/c mouse assessed as tumor growth inhibition at 15 mg/kg, po qd administered via gavage for 10 days; assay type: functional, organism-based
Mus musculus [24] = experiment: Toxicity in nude BALB/c mouse xenografted with human MFE296 cells assessed as body weight loss at 15 mg/kg, po qd administered via gavage for 10 days measured after 6 days; assay type: organism-based; conditions: in vivo, 144 h
MFE-296 [25] = experiment: Antitumor activity against human MFE296 cells xenografted in nude BALB/c mouse assessed as tumor growth inhibition at 3.75 to 7.5 mg/kg, po qd administered via gavage for 10 days relative to control; assay type: functional
Mus musculus [26] = experiment: Toxicity in nude BALB/c mouse xenografted with human MFE296 cells assessed as body weight loss at 3.75 to 7.5 mg/kg, po qd administered via gavage for 10 days; assay type: organism-based; conditions: in vivo, 240 h
Hs-578T [27] = experiment: Antiproliferative activity against human Hs 578T cells up to 1000 nM after 72 hrs by ATPlite assay; assay type: functional, cell-based
BT-549 [28] = experiment: Antiproliferative activity against human BT549 cells up to 1000 nM after 72 hrs by ATPlite assay; assay type: functional, cell-based
MDA-MB-436 [29] = experiment: Antiproliferative activity against human MDA-MB-436 cells up to 1000 nM after 72 hrs by ATPlite assay; assay type: functional, cell-based
Hs-578T [30] = experiment: Antiproliferative activity against paclitaxel-resistant human Hs 578T cells 20B clone up to 1000 nM after 72 hrs by ATPlite assay; assay type: functional, cell-based
Hs-578T [31] = experiment: Antiproliferative activity against paclitaxel-resistant human Hs 578T cells 10C clone up to 1000 nM after 72 hrs by ATPlite assay; assay type: functional, cell-based
BT-549 [32] = experiment: Antiproliferative activity against paclitaxel-resistant human BT549 cells 10A clone up to 1000 nM after 72 hrs by ATPlite assay; assay type: functional, cell-based
MDA-MB-436 [33] = experiment: Antiproliferative activity against paclitaxel-resistant human MDA-MB-436 cells 20A clone up to 1000 nM after 72 hrs by ATPlite assay; assay type: functional, cell-based
MDA-MB-436 [34] = experiment: Antiproliferative activity against paclitaxel-resistant human MDA-MB-436 cells 20B clone up to 1000 nM after 72 hrs by ATPlite assay; assay type: functional, cell-based
Breast carcinoma cell [35] = experiment: Antitumor activity against chemo-refractory disease patient-derived breast cancer cells xenografted in NOD/SCID mouse assessed as tumor growth inhibition at 10 mg/kg, po qd administered via gavage for 15 days; assay type: functional, organism-based; conditions: Homo sapiens
Breast carcinoma cell [36] = experiment: Antitumor activity against chemo-refractory disease patient-derived breast cancer cells xenografted in NOD/SCID mouse assessed as tumor regression at 10 mg/kg, po qd administered via gavage for 60 days; assay type: functional, organism-based; conditions: Homo sapiens
Mus musculus [37] = experiment: Toxicity in NOD/SCID mouse xenografted with chemo-refractory disease patient-derived breast cancer cells at 10 mg/kg, po qd administered via gavage for 60 days; assay type: organism-based; conditions: in vivo, 1440 h
in vitro [38] = conditions: human, Caco-2
Description: Apparent intrinsic permeability in human Caco2 cells from apical to basolateral side after 120 mins by mass spectrometry

in vitro [39] = conditions: human, Caco-2; remark: listed apart in the source
Description: Apparent intrinsic permeability in human Caco2 cells from basolateral to apical side after 120 mins by mass spectrometry

[40] = Tmax in rat administered as single po dose by mass spectrometry; assay type: ADME, organism-based; conditions: in vivo

Cytochrome P450 3A4, sequence (P08684 whole entry): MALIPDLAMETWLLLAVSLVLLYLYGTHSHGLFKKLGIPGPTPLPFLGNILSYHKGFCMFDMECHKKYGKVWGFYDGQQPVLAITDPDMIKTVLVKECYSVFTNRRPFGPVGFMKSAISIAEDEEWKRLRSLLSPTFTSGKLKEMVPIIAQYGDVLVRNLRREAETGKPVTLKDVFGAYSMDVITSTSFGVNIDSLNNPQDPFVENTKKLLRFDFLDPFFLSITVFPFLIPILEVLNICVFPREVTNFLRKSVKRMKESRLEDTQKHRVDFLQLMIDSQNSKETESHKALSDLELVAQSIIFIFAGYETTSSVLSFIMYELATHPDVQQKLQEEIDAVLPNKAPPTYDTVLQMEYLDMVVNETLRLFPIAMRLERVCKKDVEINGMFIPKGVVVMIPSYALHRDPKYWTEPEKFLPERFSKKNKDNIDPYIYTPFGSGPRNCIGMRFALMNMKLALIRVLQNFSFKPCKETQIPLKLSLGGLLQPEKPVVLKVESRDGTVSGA
Cytochrome P450 2C9, sequence (P11712 whole entry): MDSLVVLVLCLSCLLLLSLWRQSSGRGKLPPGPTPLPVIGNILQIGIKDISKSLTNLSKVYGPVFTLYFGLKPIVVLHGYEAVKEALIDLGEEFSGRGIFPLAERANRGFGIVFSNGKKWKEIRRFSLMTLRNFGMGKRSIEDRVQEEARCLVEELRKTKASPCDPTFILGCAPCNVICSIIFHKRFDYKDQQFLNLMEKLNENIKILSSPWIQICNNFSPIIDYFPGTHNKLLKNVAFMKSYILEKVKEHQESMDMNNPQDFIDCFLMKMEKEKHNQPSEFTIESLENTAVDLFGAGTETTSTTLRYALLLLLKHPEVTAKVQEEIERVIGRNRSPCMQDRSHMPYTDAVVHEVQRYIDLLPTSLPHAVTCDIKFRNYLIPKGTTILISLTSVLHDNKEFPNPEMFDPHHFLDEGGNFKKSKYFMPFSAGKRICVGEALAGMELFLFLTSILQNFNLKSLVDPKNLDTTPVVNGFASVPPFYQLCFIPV
Cytochrome P450 2D6, sequence (P10635 whole entry): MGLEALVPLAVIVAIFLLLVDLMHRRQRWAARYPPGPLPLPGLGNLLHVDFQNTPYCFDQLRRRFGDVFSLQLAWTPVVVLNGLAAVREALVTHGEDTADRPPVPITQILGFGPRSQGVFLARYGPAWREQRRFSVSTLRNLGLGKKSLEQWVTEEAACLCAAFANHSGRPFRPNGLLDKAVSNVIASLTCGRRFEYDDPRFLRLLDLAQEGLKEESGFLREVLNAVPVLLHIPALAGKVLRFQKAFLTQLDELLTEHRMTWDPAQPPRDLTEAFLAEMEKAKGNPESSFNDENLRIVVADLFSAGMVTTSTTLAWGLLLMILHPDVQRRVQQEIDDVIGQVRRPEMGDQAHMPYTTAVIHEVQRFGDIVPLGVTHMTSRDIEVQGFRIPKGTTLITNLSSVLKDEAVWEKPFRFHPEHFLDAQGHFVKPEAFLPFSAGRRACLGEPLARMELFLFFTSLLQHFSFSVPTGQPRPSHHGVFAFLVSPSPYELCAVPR
Cytochrome P450 2C19, sequence (P33261 whole entry): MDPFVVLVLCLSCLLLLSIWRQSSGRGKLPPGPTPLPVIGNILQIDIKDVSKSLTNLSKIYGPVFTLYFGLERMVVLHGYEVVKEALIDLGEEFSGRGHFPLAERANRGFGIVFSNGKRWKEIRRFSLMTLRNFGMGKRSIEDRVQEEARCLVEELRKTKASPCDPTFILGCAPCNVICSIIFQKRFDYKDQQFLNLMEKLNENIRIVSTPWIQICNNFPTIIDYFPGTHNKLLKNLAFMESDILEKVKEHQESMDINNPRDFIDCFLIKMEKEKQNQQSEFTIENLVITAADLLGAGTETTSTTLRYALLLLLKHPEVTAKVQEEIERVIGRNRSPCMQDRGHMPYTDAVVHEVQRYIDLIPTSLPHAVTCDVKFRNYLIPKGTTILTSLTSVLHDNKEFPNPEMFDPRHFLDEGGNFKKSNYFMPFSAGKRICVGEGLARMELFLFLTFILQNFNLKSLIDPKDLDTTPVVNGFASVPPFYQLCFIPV

Compound: Cc1ccc(C(=O)Nc2ccc(-c3cccc(C4COC4)c3)cn2)cn1
MTD [1]: ≤ 6 mg/kg
TGI (SNU-16 [2]): 69%
Tmax [3]: ≤ 15 min

Compound: Cc1ncc(C(=O)Nc2ccc(-c3cccc(S(=O)(=O)C4CC4)c3)cn2)cn1
MTD [1]: ≤ 6 mg/kg
TGI (SNU-16 [2]): 109%
MTD [4]: ≤ 20 mg/kg
TGI (A2780 [5]): Active
Activity (Mus musculus [6]): Toxic
TGI (A2780 [7]): Active
Activity (Mus musculus [8]): Non-Toxic
Tmax [3]: ≤ 15 min
fraction unbound [9]: 0.022
fraction unbound [10]: 0.022
Drug recovery [11]: 87.2%
remaining at 1.25 h [12]: 93%
remaining at 2 h [13]: 111%
remaining at 4 h [14]: 103%
remaining at 8 h [15]: 102%
remaining at 24 h [16]: 115%
half-life [17]: 67.4 min
half-life [18]: 79.6 min
half-life [19]: 49.9 min
half-life [20]: 144 min
IC50 (Cytochrome P450 1A2): > 30 µM
IC50 (Cytochrome P450 2C9): > 30 µM
IC50 (Cytochrome P450 2C19): > 30 µM
IC50 (Cytochrome P450 2D6): > 30 µM
IC50 (Cytochrome P450 3A4): > 30 µM
efflux ratio at 2 h [21]: 1.02
TGI (SNU-16 [22]): Active
TGI (MFE-296 [23]): Active
Activity (Mus musculus [24]): Toxic
TGI (MFE-296 [25]): >85%
Activity (Mus musculus [26]): Non-Toxic
Activity (Hs-578T [27]): Active
Activity (BT-549 [28]): Active
Activity (MDA-MB-436 [29]): Active
Activity (Hs-578T [30]): Active
Activity (Hs-578T [31]): Active
Activity (BT-549 [32]): Active
Activity (MDA-MB-436 [33]): Active
Activity (MDA-MB-436 [34]): Active
TGI (Breast carcinoma cell [35]): Active
Activity (Breast carcinoma cell [36]): Active
Activity (Mus musculus [37]): Non-Toxic
Papp A→B at 2 h (in vitro [38]): 25.7 ×10⁻⁶ cm/s
Papp B→A at 2 h (in vitro [39]): 26.1 ×10⁻⁶ cm/s

efflux ratio at 2 h [21]: 3.24
Papp A→B at 2 h (in vitro [38]): 0.87 ×10⁻⁶ cm/s
Papp B→A at 2 h (in vitro [39]): 2.83 ×10⁻⁶ cm/s
Compound: CNC(=C[N+](=O)[O-])NCCSCc1ccc(CN(C)C)o1 [RANITIDINE]

Compound: Cc1ncc(C(=O)Nc2ccc(-c3cccc(OC4CC4)c3)cn2)cn1
MTD [1]: ≤ 6 mg/kg
TGI (SNU-16 [2]): 100%
MTD [4]: ≤ 20 mg/kg
TGI (A2780 [5]): Active
Activity (Mus musculus [6]): Non-Toxic
Tmax [3]: ≤ 15 min
Tmax [40]: 15 min
fraction unbound [9]: 0.0061
fraction unbound [10]: 0.0061
Drug recovery [11]: 79.64%
remaining at 1.25 h [12]: 89.4%
remaining at 2 h [13]: 81.1%
remaining at 4 h [14]: 91.5%
remaining at 8 h [15]: 74.1%
remaining at 24 h [16]: 89.7%
half-life [17]: 13.7 min
half-life [18]: 10.9 min
half-life [19]: 20.6 min
half-life [20]: 144 min
IC50 (Cytochrome P450 1A2): > 30 µM
IC50 (Cytochrome P450 2C9): > 30 µM
IC50 (Cytochrome P450 2C19): > 30 µM
IC50 (Cytochrome P450 2D6): > 30 µM
IC50 (Cytochrome P450 3A4): > 30 µM

Compound: CC(C)NCC(O)COc1cccc2ccccc12 (stereo unspecified) [PROPRANOLOL]
efflux ratio at 2 h [21]: 0.99
Papp A→B at 2 h (in vitro [38]): 21.2 ×10⁻⁶ cm/s
Papp B→A at 2 h (in vitro [39]): 21.1 ×10⁻⁶ cm/s

Compound: CC(=O)CC(c1ccccc1)c1c(O)c2ccccc2oc1=O (stereo unspecified) [WARFARIN]
Drug recovery [11]: 98.63%

Compound: O=C(Nc1ccc(-c2cccc(C3CC3)c2)cn1)c1cncnc1
MTD [1]: ≤ 6 mg/kg
TGI (SNU-16 [2]): 74%
Tmax [3]: ≤ 15 min
